Laboratory results from patent US10865208B2, “ATG7 inhibitors and the uses thereof” (Millennium Pharmaceuticals, Inc., priority 2016, dated 2020).

Biological target: recombinant human His-ATG7 enzyme (Homo sapiens (Human), UniProt O95352)
Assay: ATG7 Enzyme Assay (HTRF/FRET, ATG3-GST and Flag-Gabarap)
Assay type: biochemical
Conditions: for inhibition at 0.123 µM: Concentration 0.123 μM; for inhibition at 0.123 µM / inhibition at 0.111 µM: read-out: Percent Inhibition; for inhibition at 0.111 µM: Concentration 0.111 μM
Summary of the method: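 HTRF read-out after 2 h at 24° C, using Eu-cryptate anti-Flag and XL-APC anti-GST antibodies in an EDTA stop buffer. The preceding 105 min, 24° C reaction (pH 7.5) held 10 μM ATP, 5 nM each ATG3-GST and Flag-Gabarap, and 0.15 nM human His-ATG7. Values are IC50 or percent inhibition at one concentration.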

recombinant human His-ATG7 enzyme, sequence (O95352 whole entry): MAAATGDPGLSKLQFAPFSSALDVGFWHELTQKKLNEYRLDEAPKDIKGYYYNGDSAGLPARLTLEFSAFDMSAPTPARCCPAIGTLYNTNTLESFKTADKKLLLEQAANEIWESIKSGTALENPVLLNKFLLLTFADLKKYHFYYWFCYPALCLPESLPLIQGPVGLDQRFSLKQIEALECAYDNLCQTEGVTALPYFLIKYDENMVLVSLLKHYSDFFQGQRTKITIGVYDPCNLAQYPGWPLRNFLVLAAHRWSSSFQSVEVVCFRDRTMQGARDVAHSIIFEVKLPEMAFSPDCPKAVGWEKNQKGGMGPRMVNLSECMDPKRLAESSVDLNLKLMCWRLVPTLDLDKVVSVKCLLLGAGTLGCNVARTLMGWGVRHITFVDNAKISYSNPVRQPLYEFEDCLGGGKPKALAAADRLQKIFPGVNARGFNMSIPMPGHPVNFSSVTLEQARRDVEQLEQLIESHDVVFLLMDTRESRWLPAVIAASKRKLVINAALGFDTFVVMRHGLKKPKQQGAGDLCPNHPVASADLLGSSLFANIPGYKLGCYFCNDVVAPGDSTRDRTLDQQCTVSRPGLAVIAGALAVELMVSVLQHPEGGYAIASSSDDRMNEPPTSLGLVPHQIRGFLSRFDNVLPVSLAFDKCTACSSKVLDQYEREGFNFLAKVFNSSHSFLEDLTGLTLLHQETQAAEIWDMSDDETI

| Compound | IC50 [nM] | inhibition at 0.123 µM [%] | inhibition at 0.111 µM [%] |
| --- | --- | --- | --- |
| CC(O)c1nn([C@@H]2O[C@H](COS(N)(=O)=O)[C@@H](O)[C@H]2O)c2ncnc(N)c12 (single isomer, unassigned) [Compound I-23b, [(2R,3S,4R,5R)-5-{4-amino-3-[(1R)-1-hydroxyethyl]-1H-pyrazolo[3,4-d]pyrimidin-1-yl}-3,4-dihydroxytetrahydrofuran-2-yl]methyl Sulfamate or [(2R,3S,4R,5R)-5-{4-amino-3-[(1S)-1-hydroxyethyl]-1H-pyrazolo[3,4-d]pyrimidin-1-yl}-3,4-dihydroxytetrahydrofuran-2-yl]methyl Sulfamate] | 100 to 500 | 22 | – |
| CSc1nn([C@@H]2O[C@@H](COS(N)(=O)=O)[C@@H](O)[C@@H]2F)c2ncnc(N)c12 [Compound I-96, {(2S,3R,4S,5R)-5-[4-amino-3-(methylsulfanyl)-1H-pyrazolo[3,4-d]pyrimidin-1-yl]-4-fluoro-3-hydroxytetrahydrofuran-2-yl}methyl Sulfamate] | 100 to 500 | – | 44 |
| Cn1ccnc1Sc1nn([C@@H]2O[C@H](COS(N)(=O)=O)[C@@H](O)[C@@H]2F)c2ncnc(N)c12 [Compound I-125, [(2R,3R,4S,5R)-5-{4-amino-3-[(1-methyl-1H-imidazol-2-yl)sulfanyl]-1H-pyrazolo[3,4-d]pyrimidin-1-yl}-4-fluoro-3-hydroxytetrahydrofuran-2-yl]methyl sulfamate] | 100 to 500 | – | 37 |
| Nc1ncnc2c1c(Sc1ccc(C(F)(F)F)cc1)nn2[C@@H]1O[C@H](COS(N)(=O)=O)[C@@H](O)[C@@H]1F [Compound I-132, [(2R,3R,4S,5R)-5-(4-amino-3-{[4-(trifluoromethyl)phenyl]sulfanyl}-1H-pyrazolo[3,4-d]pyrimidin-1-yl)-4-fluoro-3-hydroxytetrahydrofuran-2-yl]methyl sulfamate] | 50 to 100 | – | 60 |
| Cn1cc(CSc2nn([C@@H]3O[C@H](COS(N)(=O)=O)[C@@H](O)[C@@H]3F)c3ncnc(N)c23)cn1 [Compound I-145, [(2R,3R,4S,5R)-5-(4-amino-3-{[(1-methyl-1H-pyrazol-4-yl)methyl]sulfanyl}-1H-pyrazolo[3,4-d]pyrimidin-1-yl)-4-fluoro-3-hydroxytetrahydrofuran-2-yl]methyl sulfamate] | 20 to 50 | – | 74 |
| Nc1ncnc2c1c(SCC(F)F)nn2[C@H]1C[C@H](O)[C@H](COS(N)(=O)=O)O1 [Compound I-227, [(2S,3S,5R)-5-{4-amino-3-[(2,2-difluoroethyl)sulfanyl]-1H-pyrazolo[3,4-d]pyrimidin-1-yl}-3-hydroxytetrahydrofuran-2-yl]methyl Sulfamate] | 100 to 500 | – | 48 |
| CN(C)C(=O)CSc1nn([C@H]2C[C@H](O)[C@@H](COS(N)(=O)=O)O2)c2ncnc(N)c12 [Compound I-180, [(2R,3S,5R)-5-(4-amino-3-{[2-(dimethylamino)-2-oxoethyl]sulfanyl}-1H-pyrazolo[3,4-d]pyrimidin-1-yl)-3-hydroxytetrahydrofuran-2-yl]methyl sulfamate] | 100 to 500 | – | 29 |
| Nc1ncnc2c1c(Sc1ccncc1)nn2[C@@H]1O[C@H](COS(N)(=O)=O)[C@@H](O)[C@H]1O [Compound I-66, {(2R,3S,4R,5R)-5-[4-amino-3-(pyridin-4-ylsulfanyl)-1H-pyrazolo[3,4-d]pyrimidin-1-yl]-3,4-dihydroxytetrahydrofuran-2-yl}methyl sulfamate] | 20 to 50 | 68 | – |
| Nc1ncnc2c1c(Sc1ccccn1)nn2[C@H]1C[C@H](O)[C@@H](COS(N)(=O)=O)O1 [Compound I-194, {(2R,3S,5R)-5-[4-amino-3-(pyridin-2-ylsulfanyl)-1H-pyrazolo[3,4-d]pyrimidin-1-yl]-3-hydroxytetrahydrofuran-2-yl}methyl sulfamate] | 20 to 50 | – | 79 |
